Data taken from ChEMBL document CHEMBL3045327, “Synthesis, cytotoxic evaluation, and in silico studies of substituted N-alkylbromo-benzothiazoles” (Med Chem Res, 2013).

Experiments:
Format in all cases: functional, cell-based
THP-1 = experiment: Cytotoxicity against Homo sapiens (human) THP1 cells after 48 hr by SRB assay; settings: for IC50: THP-1, 48 h
A549 = experiment: Cytotoxicity against Homo sapiens (human) A549 cells after 48 hr by SRB assay; settings: for IC50: A549, 48 h
PC-3 = experiment: Cytotoxicity against Homo sapiens (human) PC3 cells after 48 hr by SRB assay; settings: for IC50: PC-3, 48 h
Caco-2 = experiment: Cytotoxicity against Homo sapiens (human) Caco2 cells after 48 hr by SRB assay; settings: Caco-2, 48 h

SMILES	Activity (THP-1)	IC50 (THP-1) [µM]	Activity (A549)	IC50 (A549) [µM]	Activity (PC-3)	IC50 (PC-3) [µM]	IC50 (Caco-2) [µM]
Cc1ccc2nc(NCCBr)sc2c1	Dose-dependent effect	39.9	Dose-dependent effect	> 100	Dose-dependent effect	40.9	67.7
Clc1cccc2sc(NCCCBr)nc12	Dose-dependent effect	1.72	Dose-dependent effect	> 100	Dose-dependent effect	3.1	> 100
Fc1ccc2nc(NCCCBr)sc2c1	Dose-dependent effect	0.9	Dose-dependent effect	> 100	Dose-dependent effect	2.5	93.7
COc1ccc2nc(NCCBr)sc2c1	Dose-dependent effect	110	Dose-dependent effect	> 100	Dose-dependent effect	100	47.9
Clc1cc2nc(NCCCBr)sc2cc1Cl	Dose-dependent effect	7	Dose-dependent effect	> 100	Dose-dependent effect	28	63
Clc1cc2nc(NCCBr)sc2cc1Cl	Dose-dependent effect	8.46	Dose-dependent effect	85.5	Dose-dependent effect	24	8.4
CO[C@@]12[C@H](COC(N)=O)C3=C(C(=O)C(C)=C(N)C3=O)N1C[C@@H]1N[C@@H]12 [MITOMYCIN]	Dose-dependent effect	1.5	Dose-dependent effect	0.4	Dose-dependent effect		
COc1ccc2nc(NCCCBr)sc2c1	Dose-dependent effect	3	Dose-dependent effect	89.9	Dose-dependent effect	0.6	9.9
Cc1ccc2nc(NCCCBr)sc2c1	Dose-dependent effect	30.3	Dose-dependent effect	> 100	Dose-dependent effect	53.3	81.6
O=c1[nH]cc(F)c(=O)[nH]1 [FLUOROURACIL]	Dose-dependent effect		Dose-dependent effect		Dose-dependent effect		21
Clc1cccc2sc(NCCBr)nc12	Dose-dependent effect	110	Dose-dependent effect	> 100	Dose-dependent effect	110	26.9
Clc1ccc2nc(NCCBr)sc2c1	Dose-dependent effect	97.8	Dose-dependent effect	> 100	Dose-dependent effect	99	> 100
CC(=O)O[C@H]1C(=O)[C@@]2(C)[C@H]([C@H](OC(=O)c3ccccc3)[C@]3(O)C[C@H](OC(=O)[C@H](O)[C@@H](NC(=O)c4ccccc4)c4ccccc4)C(C)=C1C3(C)C)[C@]1(OC(C)=O)CO[C@@H]1C[C@@H]2O	Dose-dependent effect		Dose-dependent effect		Dose-dependent effect		
Fc1ccc2nc(NCCBr)sc2c1	Dose-dependent effect	1	Dose-dependent effect	67.6	Dose-dependent effect	9.9	16.8
Clc1ccc2nc(NCCCBr)sc2c1	Dose-dependent effect	60	Dose-dependent effect	> 100	Dose-dependent effect	62.8	33
